Legend:
[1] = target: c-Cbl (Homo sapiens (Human), UniProt P22681); test: C-Cbl LCK Ub TR-FRET assay (c-cbl Lck HTRF); assay type: biochemical; details: for (fold-selectivity): C-cbl Lck HTRF IC50 relative to Cbl-b Lck HTRF IC50
How it was run: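 After the ubiquitination reaction, detection mixture was added and plates incubated 20 min at room temperature before reading. IC50 values were calculated with wells lacking LCK as the low control and DMSO as the high control.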

[2] = target: Cbl-b (Homo sapiens (Human), UniProt Q13191); test: Cbl-b LCK Ub TR-FRET assay (Cbl-b Lck HTRF); assay type: biochemical
Sequence of Cbl-b (Q13191 40-426): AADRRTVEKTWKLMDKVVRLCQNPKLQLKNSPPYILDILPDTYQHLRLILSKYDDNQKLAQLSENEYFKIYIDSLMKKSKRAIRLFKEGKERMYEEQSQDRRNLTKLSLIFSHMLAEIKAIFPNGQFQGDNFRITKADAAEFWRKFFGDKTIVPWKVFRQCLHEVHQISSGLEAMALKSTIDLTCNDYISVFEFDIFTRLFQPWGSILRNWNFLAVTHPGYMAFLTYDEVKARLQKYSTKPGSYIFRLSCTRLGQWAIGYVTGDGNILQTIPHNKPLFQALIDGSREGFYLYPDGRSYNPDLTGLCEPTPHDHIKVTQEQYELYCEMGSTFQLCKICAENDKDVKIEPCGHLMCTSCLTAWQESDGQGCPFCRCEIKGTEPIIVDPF
How it was run: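 Biotin-Cbl-b preincubated with compound (10-point 3-fold series) 60 min, then His-LCK with 1 mM ATP (2× mixture) added for 90 min at room temperature. Ubiquitination detected by TR-FRET using HA-ubiquitin/UBE2D2 adduct, anti-HA-D2 and streptavidin-Eu; IC50 normalised to no-LCK and DMSO controls.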

Sequence of c-Cbl (P22681 47-435): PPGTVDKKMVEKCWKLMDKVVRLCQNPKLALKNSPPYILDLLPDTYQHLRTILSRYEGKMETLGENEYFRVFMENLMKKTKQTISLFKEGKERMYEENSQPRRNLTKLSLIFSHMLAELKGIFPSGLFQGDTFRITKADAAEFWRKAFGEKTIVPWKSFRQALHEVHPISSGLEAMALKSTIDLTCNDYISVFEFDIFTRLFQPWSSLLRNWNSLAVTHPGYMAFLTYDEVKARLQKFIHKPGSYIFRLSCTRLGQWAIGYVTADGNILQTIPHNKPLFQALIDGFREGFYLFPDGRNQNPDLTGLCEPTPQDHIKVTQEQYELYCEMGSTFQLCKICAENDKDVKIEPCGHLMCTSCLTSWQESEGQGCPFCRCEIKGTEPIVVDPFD

IC50 [1] [nM]	(fold-selectivity) [1]	IC50 [2] [nM]	SMILES
39	(0.83x)	47	CC[C@@H]1CC[C@H](c2cc3c(c(C(F)(F)F)c2)CN(c2cccc(C4(Cc5nncn5C)CC(F)(F)C4)c2)C3=O)N1 [Compound 476, 2-(3-(3,3-difluoro-1-((4-methyl-4H-1,2,4-triazol-3-yl)methyl)cyclobutyl)phenyl)-6-((2R,5R)-5-ethylpyrrolidin-2-yl)-4-(trifluoromethyl)isoindolin-1-one]
110	(3.4x)	36	Cn1cnnc1CC1(c2cc(NC3CCCC3)cc(N3Cc4c(cc(CNC5(C)CCC5)cc4C(F)(F)F)C3=O)c2)CC(F)(F)C1 [Compound 477, 2-(3-(cyclopentylamino)-5-(3,3-difluoro-1-((4-methyl-4H-1,2,4-triazol-3-yl)methyl)cyclobutyl)phenyl)-6-(((1-methylcyclobutyl)amino)methyl)-4-(trifluoromethyl)isoindolin-1-one]
160	(2.0x)	82	Cn1cnnc1CC1(c2cc(OC3CCCC3)cc(N3Cc4c(cc(CNC5(C)CCC5)cc4C(F)(F)F)C3=O)c2)CC(F)(F)C1 [Compound 478, 2-(3-(cyclopentyloxy)-5-(3,3-difluoro-1-((4-methyl-4H-1,2,4-triazol-3-yl)methyl)cyclobutyl)phenyl)-6-(((1-methylcyclobutyl)amino)methyl)-4-(trifluoromethyl)isoindolin-1-one]
290	(1.6x)	180	Cn1cnnc1CC1(c2cc(OC3CCCC3)cc(N3Cc4c(cc(CNC5(C)CCC5)cc4C(F)(F)F)C3=O)c2)COC1 [Compound 479, 2-(3-(cyclopentyloxy)-5-(3-((4-methyl-4H-1,2,4-triazol-3-yl)methyl)oxetan-3-yl)phenyl)-6-(((1-methylcyclobutyl)amino)methyl)-4-(trifluoromethyl)isoindolin-1-one]
180	(2.8x)	59	Cn1cnnc1CC1(c2cc(NC3CCCC3)cc(N3Cc4c(cc(CNC5(C)CCC5)cc4C(F)(F)F)C3=O)c2)COC1 [Compound 480, 2-(3-(cyclopentylamino)-5-(3-((4-methyl-4H-1,2,4-triazol-3-yl)methyl)oxetan-3-yl)phenyl)-6-(((1-methylcyclobutyl)amino)methyl)-4-(trifluoromethyl)isoindolin-1-one]
420	(3.7x)	110	CC[C@H](C)Nc1cc(C2(Cc3nncn3C)COC2)cc(N2Cc3c(cccc3C(F)(F)F)C2=O)n1 [Compound 481, (S)-2-(6-(sec-butylamino)-4-(3-((4-methyl-4H-1,2,4-triazol-3-yl)methyl)oxetan-3-yl)pyridin-2-yl)-4-(trifluoromethyl)isoindolin-1-one]
410	(1.9x)	210	CC[C@@H](C)Nc1cc(C2(Cc3nncn3C)COC2)cc(N2Cc3c(cccc3C(F)(F)F)C2=O)n1 [Compound 482, (R)-2-(6-(sec-butylamino)-4-(3-((4-methyl-4H-1,2,4-triazol-3-yl)methyl)oxetan-3-yl)pyridin-2-yl)-4-(trifluoromethyl)isoindolin-1-one]
20000	(12x)	1800	Cn1cnnc1CC1(c2cc(NC3CCC(F)(F)C3)nc(N3Cc4c(cccc4C(F)(F)F)C3=O)c2)COC1 (stereo not drawn) [Compound 483, 2-(6-((3,3-difluorocyclopentyl)amino)-4-(3-((4-methyl-4H-1,2,4-triazol-3-yl)methyl)oxetan-3-yl)pyridin-2-yl)-4-(trifluoromethyl)isoindolin-1-one]
1200	(4.8x)	230	Cn1cnnc1CC1(c2cc(NC3CC=CC3)nc(N3Cc4c(cccc4C(F)(F)F)C3=O)c2)COC1 [Compound 484, 2-(6-(cyclopent-3-en-1-ylamino)-4-(3-((4-methyl-4H-1,2,4-triazol-3-yl)methyl)oxetan-3-yl)pyridin-2-yl)-4-(trifluoromethyl)isoindolin-1-one]
29	(0.92x)	31	CCn1cnnc1C(F)C1(c2cccc(N3Cc4c(cc(CN5CCN(C)C[C@@H]5C(C)C)cc4C(F)(F)F)C3=O)c2)CC(F)(F)C1 (stereo partly drawn) [Compound 485, 2-(3-(1-((4-ethyl-4H-1,2,4-triazol-3-yl)fluoromethyl)-3,3-difluorocyclobutyl)phenyl)-6-(((S)-2-isopropyl-4-methylpiperazin-1-yl)methyl)-4-(trifluoromethyl) isoindolin-1-one]
93	(1.2x)	77	CC(C)[C@H]1CN(C)CCN1Cc1cc2c(c(C(F)(F)F)c1)CN(c1cccc(C3([C@@H](F)c4nncn4C4CC4)COC3)c1)C2=O [Compound 486, 2-(3-(3-((R)-(4-cyclopropyl-4H-1,2,4-triazol-3-yl)fluoromethyl)oxetan-3-yl)phenyl)-6-(((S)-2-isopropyl-4-methylpiperazin-1-yl)methyl)-4-(trifluoromethyl)isoindolin-1-one]
2700	(1.5x)	1800	CC(C)[C@H]1CN(C)CCN1Cc1cc2c(c(C(F)(F)F)c1)CN(c1cccc(C3([C@H](F)c4nncn4C4CC4)COC3)c1)C2=O [Compound 487, 2-(3-(3-((S)-(4-cyclopropyl-4H-1,2,4-triazol-3-yl)fluoromethyl)oxetan-3-yl)phenyl)-6-(((S)-2-isopropyl-4-methylpiperazin-1-yl)methyl)-4-(trifluoromethyl)isoindolin-1-one]
12500	(6.4x)	1900	Cn1cnnc1CC1(c2cc(NCCC(F)(F)F)nc(N3Cc4c(cccc4C(F)(F)F)C3=O)c2)COC1 [Compound 488, 2-(4-(3-((4-methyl-4H-1,2,4-triazol-3-yl)methyl)oxetan-3-yl)-6-((3,3,3-trifluoropropyl)amino)pyridin-2-yl)-4-(trifluoromethyl)isoindolin-1-one]
19500	(3.8x)	5000	Cn1cnnc1CC1(c2cc(NC3CCCC3O)nc(N3Cc4c(cccc4C(F)(F)F)C3=O)c2)COC1 (stereo not drawn) [Compound 489, 2-(6-((2-hydroxycyclopentyl)amino)-4-(3-((4-methyl-4H-1,2,4-triazol-3-yl)methyl)oxetan-3-yl)pyridin-2-yl)-4-(trifluoromethyl)isoindolin-1-one]
3500	(1.0x)	3300	C[C@@H]1COCCN1c1cc(C2(Cc3nncn3C)COC2)cc(N2Cc3c(cccc3C(F)(F)F)C2=O)n1 [Compound 490, (R)-2-(4-(3-((4-methyl-4H-1,2,4-triazol-3-yl)methyl)oxetan-3-yl)-6-(3-methylmorpholino)pyridin-2-yl)-4-(trifluoromethyl)isoindolin-1-one]
20000	(2.3x)	8600	Cn1cnnc1CC1(c2cc(NCC(N)=O)nc(N3Cc4c(cccc4C(F)(F)F)C3=O)c2)COC1 [Compound 491, 2-((4-(3-((4-methyl-4H-1,2,4-triazol-3-yl)methyl)oxetan-3-yl)-6-(1-oxo-4-(trifluoromethyl)isoindolin-2-yl)pyridin-2-yl)amino)acetamide]
60	(1.0x)	57	CC1(NCc2cc3c(c(C(F)(F)F)c2)CN(c2cccc(C4(Cc5nncn5C5CC5)CC(F)(F)C4)c2)C3=O)CCC1 [Compound 492, 2-(3-(1-((4-cyclopropyl-4H-1,2,4-triazol-3-yl)methyl)-3,3-difluorocyclobutyl)phenyl)-6-(((1-methylcyclobutyl)amino)methyl)-4-(trifluoromethyl)isoindolin-1-one]
4500	(6.9x)	630	Cn1cnnc1CC1(c2cc(NC34CCC(C3)C4)nc(N3Cc4c(cccc4C(F)(F)F)C3=O)c2)COC1 [Compound 493, 2-(6-(bicyclo[2.1.1]hexan-1-ylamino)-4-(3-((4-methyl-4H-1,2,4-triazol-3-yl)methyl)oxetan-3-yl)pyridin-2-yl)-4-(trifluoromethyl)isoindolin-1-one]
12	(0.94x)	13	Cn1cnnc1[C@H](F)C1(c2cccc(N3Cc4c(cc(CNC5(C)CCC5)cc4C(F)(F)F)C3=O)c2)COC1 [Compound 494, (R)-2-(3-(3-(fluoro(4-methyl-4H-1,2,4-triazol-3-yl)methyl)oxetan-3-yl)phenyl)-6-(((1-methylcyclobutyl)amino)methyl)-4-(trifluoromethyl)isoindolin-1-one]

From patent US20250230147A1, “LACTAMS AS CBL-B INHIBITORS” (Genentech, Inc., priority 2021, published 2025)
